The values that follow come from patent US7645882B2, “Inhibitor of protein modification products formation” (priority 2003, dated 2010).

Each structure is given as a SMILES string.

Data set [1] relates to pentosidine. Nature of the data set: Pentosidine formation inhibiting effect in plasma of hemodialysis patients. Type of data set: biochemical, human. To be noted: plasma from hemodialysis patients, final concentration 0.8, 2.0, 5.0 mM, 37° C. for one week; compared to pyridoxamine as positive control. As to the method:
Fresh heparinized plasma samples were obtained after informed consent from hemodialysis patients prior to the dialysis session, and filtrated and sterilized. To the plasma (450 μL), there was added the solution of TM-2002 in dimethylsurphoxide (50 μL) (final concentration: 0.8, 2.0, 5.0 mM) incubated at 37° C. for one week. Then, the amount of pentosidine was measured.
Measurement of the amount of pentosidine was made as follows: to each incubated sample (50 μL) was added an equal volume of 10% trichloroacetic acid, followed by centrifugation at 5000 g for 5 minutes; after removal of the supernatant, the pellet was washed by 5% trichloroacetic acid (300 μL); the pellet was dried under reduced pressure and then subjected to hydrolysis in 6N HCl solution (100 μL) at 110° C. under nitrogen atmosphere for 16 hours; to the hydrolysate, 5N NaOH (100 μL) and 0.5 M phosphate buffer (pH 7.4) (200 μL) were added, followed by filtration through a porefilter with a pore size of 0.5 μm and dilution with PBS. The concentration of free pentosidine was determined by reversed-phase HPLC using a fluorescence detector (Miyata, T. et al.: Proc. Natl. Acad. Sci. USA, Vol. 93, p. 2353-2358, 1996). The effluent was monitored at 335/385 nm of excitation/emission wavelength. Synthetic pentosidine was used as the standard. The detection limit of pentosidine was 0.1 pmol/mg protein. […]

Data set [2] relates to ischemia-reperfusion renal failure model rat. Nature of the data set: Renal protective effect on ischemia-reperfusion renal failure model rat. The data set is classed as in vivo. To be noted: 50 mg/kg twice daily by sonde, 2 days. On the procedure: This condition model is typical acute renal failure model. To prepare the model, operated on wistar rats (male, body weight 150 g, 6 weeks aged) to remove right kidney, and on the following day, renal artery of remaining left kidney was apply a ligature with clip under general anesthesia. […] After preparing the ischemia-reperfusion model, test compound (TM-2002, 50 mg/kg body weight, twice a daily) was suspended in 0.5% carboxymethylcellulose. The suspension was coercively administered 2 days continuously using sonde, on third day kidney was obtained, and analysed pathologically (renal tubular stromal disorder score). In particular, the kidney was stained by PAS according to conventional method and the renal tubular stromal disorder was estimated for the presence or absence of renal tubular necrosis, renal tubular hypertrophy, renal tubular atrophia, renal tubular basal lamina thickening and cast in the sustained image of kidney. As well as biochemical analysis of blood was carried out (contract clinical analysis organization: SRL).

A short description of data set [3]: Solubility test at different pH. As to conditions: for condition of the solution: 10 mg per 1 ml purified water. The data set is classed as physicochemical. As to the method: TM-2002 was added in purified water to be 10 mg per 1 ml and added hydrochloride to adjust to pH 2.0 and solved. Then, this solution was adjusted to pH 7.0, 8.0 and 2,0 (unadjust) by 1N sodium hydrate to prepare 3 solutions. These solutions were put on warming, dark cold place and after 24 hours, conditions of the solutions were observed. […] As the result, stable TM-2002 injectable formulation in its solubility may be prepared by keeping acidic condition using inorganic acid such as hydrochloride, sulfuric acid, or various organic acid, or by using TM-2002 hydrochloride or sulfate as material which is made from said acids.

For the compound `Cc1ncc2c(c1O)C(c1c(C)nn(-c3ccccc3)c1O)OC2` (centres unmarked) [compound 68, 1-(5-hydroxy-3-methyl-1-phenyl-1H-pyrazol-4-yl)-6-methyl-1,3-dihydro-furo[3,4-c]pyridin-7-ol], the “pentosidine formation inhibiting effect” value in data set [1] is reported as “inhibits significantly pentosidine formation compared to pyridoxamine”. In addition, the BUN value result in data set [2] (kidney on third day) is “improved”. Moreover, the urinary protein entry in data set [2] (kidney on third day) is recorded as “improved”. The “number of glomerular cells” value in data set [2] (p<0.0001) is reported as “significantly suppressed”. Besides, the “condition of the solution” value in data set [3] (pH 2.0, after 24 hours) is given as “kept clear solution”; in data set [3] (pH 7.0, after 24 hours), “observed precipitate”; in data set [3] (pH 8.0, after 24 hours) it was “observed precipitate”. In addition, in data set [3] (pH 7.0 and pH 8.0 solutions, after 24 hours), the “change of color of the solution” value is reported as “the change of color was shown”.
